Reference: PubChem BioAssay (NCI)
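Test compounds were applied to cells in 96-well plates for 48 hours at 5 doses. Here, GI50 denotes the concentration required for 50% inhibition of growth. TGI: concentration producing complete growth inhibition.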

Tests used:
Experiment in all cases: NCI tumour cell line growth inhibition, 48 h
CAKI-1 renal = test system: CAKI-1 renal
NCI-H522 lung = test system: NCI-H522 lung
K-562 leukemia = test system: K-562 leukemia
SK-MEL-5 melanoma = test system: SK-MEL-5 melanoma
IGROV1 ovarian = test system: IGROV1 ovarian
SNB-19 CNS = test system: SNB-19 CNS
MDA-MB-231 breast = test system: MDA-MB-231 breast
DU-145 prostate = test system: DU-145 prostate
HL-60(TB) leukemia = test system: HL-60(TB) leukemia
COLO 205 colon = test system: COLO 205 colon
NCI-H226 lung = test system: NCI-H226 lung

Row | SMILES | TGI (CAKI-1 renal) [µM] | TGI (NCI-H522 lung) [µM] | TGI (K-562 leukemia) [µM] | TGI (SK-MEL-5 melanoma) [µM] | TGI (IGROV1 ovarian) [µM] | TGI (SNB-19 CNS) [µM] | TGI (MDA-MB-231 breast) [µM] | TGI (DU-145 prostate) [µM] | TGI (HL-60(TB) leukemia) [µM] | TGI (COLO 205 colon) [µM] | TGI (NCI-H226 lung) [µM] | GI50 (CAKI-1 renal) [µM] | GI50 (SK-MEL-5 melanoma) [µM]
1 | COc1ccccc1/C=C/C1=NN(c2cccc(S(=O)(=O)O)c2)C2(C1)C(Cl)C(=O)N2c1nc2ccccc2s1 (stereo not drawn) | > 74.3 | > 58.8 | > 100 | > 100 | > 100 | > 100 | > 100 | > 100 | 45.5 | > 100 | > 100 | – | –
2 | C=CC1CN(C(=O)OCC)N(C(=O)OCC)C1CCc1ccccc1 (stereo not drawn) | > 100 | > 100 | > 100 | > 100 | > 100 | > 100 | > 100 | > 100 | > 100 | > 100 | > 100 | – | –
3 | C=CCOC(=O)C1=C(C)NC2=N[C@H](CCCCCCCCC)C[C@@H]3CCC1N23 (stereo partly drawn) | > 100 | 34.7 | > 100 | 34.4 | 49.5 | 42 | 41.7 | 67.8 | 69.4 | 50.9 | 36.6 | – | –
4 | CCCSc1ccc2[nH]c(N3C(=O)/C(=C/c4ccc(SC)cc4)N=C3c3ccccc3)cc2c1 | > 50 | > 50 | 5.43 | > 36.3 | > 50 | > 50 | > 50 | > 50 | 24.8 | > 43.2 | > 50 | – | –
5 | N[C@@H]1CCN(c2c(F)cc3c(=O)c(C(=O)O)cn4c3c2Oc2cc3c(ccc5ccccc53)cc2-4)C1 | > 77.5 | 31.6 | > 23.3 | > 40 | > 100 | > 100 | > 100 | > 100 | > 59.9 | > 100 | > 100 | – | –
6 | COc1c(C(=O)NCCN(CCNC(=O)c2cccc(-c3cccc(C(=O)N(C)C)c3OC)c2OC)CCNC(=O)c2cccc(-c3cccc(C(=O)N(C)C)c3OC)c2OC)cccc1-c1cccc(C(=O)N(C)C)c1OC | > 100 | 43.5 | 65 | 68.7 | > 100 | > 100 | 81.2 | > 100 | 69.5 | 48.6 | 36.6 | – | –
7 | Cc1ccc2nc(C(C)C)c(=O)[nH]c2c1 | > 100 | > 100 | > 100 | > 100 | > 100 | > 100 | > 100 | > 100 | > 100 | > 100 | > 100 | – | –
8 | O=C(NNC(=S)NC1CCCCC1)C12CC3CC(CC(C3)C1)C2 | > 100 | > 100 | > 100 | > 100 | > 100 | > 100 | > 100 | > 100 | > 100 | > 100 | > 100 | – | –
9 | Cc1ccc2c(=O)cc(-c3ccc4ccccc4c3)[nH]c2n1 | > 100 | 20.5 | 13 | 12.7 | 82.7 | > 100 | > 100 | > 100 | 4.18 | 5.55 | 98.4 | 5.41 | 3.3
10 | O=[S@]1c2ccc3ccccc3c2N[C@@H]2[C@H]1[C@H]1C=C[C@@H]2C1 | > 100 | 55.4 | > 100 | > 100 | > 100 | > 100 | > 100 | > 100 | 63 | > 100 | > 100 | – | –
11 | COc1ccc2c(c1)CCCN1CCc3ccccc3C21 (stereo not drawn) | > 100 | > 100 | > 100 | > 100 | > 100 | > 100 | 72.2 | > 100 | 43.3 | 59.3 | 80 | – | –
12 | CC1=CC[C@@]2(C)CC[C@](O)(C(C)C)C2C(OC(=O)c2ccccc2)C1 (stereo partly drawn) | 44.9 | 33.2 | 47.8 | 34.9 | 30.6 | 40.5 | 37.6 | 32.5 | 82.2 | 43 | 45.3 | – | –
13 | CC(C)=CCC[C@@H](C)C1=C(O)C(Nc2ccccc2Cl)=C(C)C(=O)C1=O | > 55 | 22.7 | > 75 | 42.9 | 46.5 | > 75 | > 70.8 | > 75 | 4.16 | 21.7 | 29.3 | – | –
14 | O=C(/C=C/c1ccccc1)Nc1ccccc1SCCCCl | > 100 | 24.3 | > 100 | > 91.4 | > 51.5 | > 95.4 | 74.5 | > 100 | 43.6 | 48.5 | > 100 | – | –
15 | CCOC(=O)c1nc2cc(C(F)(F)F)ccc2nc1Nc1ccc(C(=O)OC)s1 | > 100 | 90.3 | > 100 | > 100 | > 100 | > 100 | 94.6 | > 100 | > 100 | 44.5 | 87.3 | – | –
16 | COc1ccc2c(c1)/C(=C\c1c(Cl)[nH]c3ccccc13)C(=O)N2 | 27.1 | 11.5 | 12.2 | 14.8 | 9.78 | 19.3 | 26.5 | 56.7 | 10.8 | 6.6 | 70.8 | – | –
17 | COC(=O)c1cc(NC(=O)Cc2c[nH]c3ccccc23)cn1C | > 100 | > 100 | > 100 | > 100 | > 100 | > 100 | > 100 | > 100 | > 100 | > 100 | > 100 | – | –
18 | O=[N+]([O-])c1ccc(-n2nc3ccc4c(no[n+]4[O-])c3n2)cc1 | > 100 | > 100 | > 100 | > 100 | > 100 | > 100 | > 100 | > 100 | > 100 | > 100 | > 100 | – | –
19 | O=C1O[C@H]2[C@H](OC(=O)c3cc(O)c(O)c(O)c3)[C@@H](OC(=O)c3cc(O)c(O)c4c3[C@@H]3C1=CC(=O)C(O)(O)C3(O)O4)[C@H](OC(=O)c1cc(O)c(O)c(O)c1)O[C@@H]2COC(=O)c1cc(O)c(O)c(O)c1 (stereo partly drawn) | > 100 | > 100 | > 100 | > 100 | > 100 | > 100 | > 100 | > 100 | > 100 | > 100 | > 100 | – | –
20 | CCCCc1ccc(Nc2nc(OC)c3ncn(C4CC(O)C(CO)O4)c3n2)cc1 (stereo not drawn) | 3.49 | 3.83 | > 100 | 33.8 | 27.2 | 34.3 | 38 | 37.3 | 4.16 | 28.4 | 44.5 | – | –
21 | NC1CCC(N(CC(=O)O)CC(=O)O)C(N(CC(=O)O)CC(=O)O)C1 (stereo not drawn) | > 100 | > 100 | > 100 | > 100 | > 100 | > 100 | > 100 | > 100 | > 100 | > 100 | > 100 | – | –
